In assay [1] the test system is wild-type T. gondii parasites. Set-up: method as in PMID 20436472, PMID 20485436. The conditions noted are these: cited from earlier work.
Assay [2] has as its system wild-type parasites (P. falciparum NF54). The assay is described as follows: Asexual parasite growth inhibition (SYBR green I assay). The format is cell-based, Plasmodium falciparum. To be noted: BKIs.
For assay [3], the target named is recombinant P. falciparum cGMP-dependent protein kinase (PfPKG) (Plasmodium falciparum, UniProt Q8I719). The experiment in a line: PfPKG in vitro kinase activity assay (luminescence). To be noted: 2 µM ATP, 20 µM cGMP, 2 h at 30°C; read-out: IC50 (SD) for PfPKG. The format is biochemical. As to the method:
Compound efficacy against recombinant P. falciparum cGMP-dependent protein kinase (PfPKG) was determined using a novel nonradioactive and high-throughput assay. This assay evaluates protein kinase activity by measuring changes in […] ATP concentration via luminescence after PfPKG enzyme phosphorylation of a peptide substrate, PKCtide ([…]) (SignalChem, Richmond, BC, Canada). The in vitro kinase assay was set up with 26 µM PKCtide, 30 nM PfPKG, and 20 µM cGMP in a buffered solution containing 20 mM β-glycerol phosphate, 20 mM MgCl2, 25 mM HEPES (pH 7.5) (KOH), 0.1% bovine serum albumin (BSA), and 2 mM DTT ([37]). The reaction was initiated with addition of 2 µM ATP. The reaction mixture was incubated at 30°C and 90-rpm agitation for 2 h. Reaction wells with no PfPKG, no peptide substrate, and no cGMP were included in each assay plate as internal negative controls.

Another assay concerns CDPK1 T145M parasites. The experiment in a line: Asexual parasite growth inhibition (SYBR green I assay). The format is cell-based, Plasmodium falciparum. The conditions noted are these: BKIs. The procedure: The parasites were electroporated as described earlier ([39]). Briefly, the ring-stage parasites at ~5% parasitemia were electroporated with 50 μg each of pL6CK1Met or pL6CK1Ser plasmid and pUF1 plasmid with the settings of 0.31 kV, 960 μF, and maximum capacitance on a Bio-Rad Gene Pulser II. WR99210 and DSM267 ([40]) were applied at the concentrations of 2 and 150 nM, respectively, after 24 h of transfection. The transgenic PfCDPK1 T145M parasites were cloned by limiting dilution in a 96-well plate. The PfCDPK1 gene sequence was amplified using primers ck1f1 (5′ […] 3′) and ck1r3wt (5′ […] 3′) specific for the region outside the homology arm of the plasmid, and the desired mutation was confirmed by DNA sequencing.
Asexual parasites were synchronized for two consecutive cycles by sorbitol treatment ([41]) and set up at 0.2% trophozoite stage (30 to 36 h postinvasion) in a 96-well plate. The growth progression was monitored for 7 days, and the growth rate of the parasites was calculated by sampling the culture every 24 h and measuring the fluorescence readout using the SYBR green I assay as described earlier ([42], [43]).

Assay [4] deals with T1, recombinant PfCDPK1 T145M (Plasmodium falciparum, UniProt P62344, T145M).
T1 construct: Full-length CDPK1 WT and five mutant proteins with different substitutions at the gatekeeper position (residue 145) were expressed in E. coli; made in house; host or cells: Escherichia coli BLR(DE3)pLysS, pGEX4T1
T1 sequence (P62344 whole entry T145M): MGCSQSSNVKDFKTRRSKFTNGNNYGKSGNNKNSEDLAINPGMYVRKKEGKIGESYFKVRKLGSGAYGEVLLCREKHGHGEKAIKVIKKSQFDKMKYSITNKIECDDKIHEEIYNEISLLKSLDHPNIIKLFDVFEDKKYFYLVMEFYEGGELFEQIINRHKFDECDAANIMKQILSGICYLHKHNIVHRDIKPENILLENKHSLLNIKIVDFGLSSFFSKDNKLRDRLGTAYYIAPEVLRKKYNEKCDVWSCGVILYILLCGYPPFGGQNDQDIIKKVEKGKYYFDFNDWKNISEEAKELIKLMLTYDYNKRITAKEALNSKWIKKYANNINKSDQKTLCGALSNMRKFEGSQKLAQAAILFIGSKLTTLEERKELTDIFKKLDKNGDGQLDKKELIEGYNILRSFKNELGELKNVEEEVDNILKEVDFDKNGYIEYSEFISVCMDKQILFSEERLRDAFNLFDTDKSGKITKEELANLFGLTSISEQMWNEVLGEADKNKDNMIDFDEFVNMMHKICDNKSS
The assay is described as follows: BKI library screening, in vitro kinase assay (KinaseGlo). The format is biochemical. The conditions noted are these: methionine gatekeeper mutant T145M; 10 µM ATP, 90 min at 30°C; read-out: PfCDPK1Met IC50. As to the method:
(§1) Recombinant PfCDPK1 WT and PfCDPK1 T145M were used in the in vitro kinase assay to calculate the IC50s for the library of bumped kinase inhibitors. Thirty-one BKIs belonging to the pyrazolopyrimidine scaffold were screened ([18][–][21]). Protein kinase activity of recombinant enzymes was assayed using 20 µM synthetic peptide substrate […] […] These reactions were performed in a buffered solution containing 1 mM EGTA (pH 7.2), 10 mM MgCl2, 20 mM HEPES (pH 7.5), 0.1% BSA, and enzyme activation reagent containing 2 mM CaCl2. The reactions were initiated with addition of 10 µM ATP, and the reaction mixtures were incubated for 90 min at 30°C. […] The KinaseGlo (Promega, Madison, WI) luminescence-based assay, in which luminescence is inversely related to kinase activity and directly related to […], was used as previously described ([21]).
On the technique in general: In Kinase-Glo more light means more ATP remaining.

Assay [5] concerns the target T2, recombinant PfCDPK1 WT (Plasmodium falciparum, UniProt P62344).
T2 construct: made in house; host or cells: Escherichia coli BLR(DE3)pLysS, pGEX4T1
Described as above. The format is biochemical. The conditions noted are these: 10 µM ATP, 90 min at 30°C; two independent experiments in triplicate. As to the method:
as §1

The test system of assay [6] is recombinant PfCDPK1 WT. The description is as above. The format is biochemical, Plasmodium falciparum. To be noted: PfCDPK1 WT vs T145M recombinant enzymes. As to the method:
as §1

These results are taken from paper PMC5142624, “Reduced Activity of Mutant Calcium-Dependent Protein Kinase 1 Is Compensated in Plasmodium falciparum through the Action of Protein Kinase G” (mBio, 2016).

The term EC50 denotes the concentration needed to bring the measured effect to its halfway point. The low end stands for a more potent agent, the high end for a less potent agent. As a reminder, the IC50 is the concentration at which inhibition is half-maximal.

recombinant P. falciparum cGMP-dependent protein kinase (PfPKG), sequence (Q8I719 whole entry): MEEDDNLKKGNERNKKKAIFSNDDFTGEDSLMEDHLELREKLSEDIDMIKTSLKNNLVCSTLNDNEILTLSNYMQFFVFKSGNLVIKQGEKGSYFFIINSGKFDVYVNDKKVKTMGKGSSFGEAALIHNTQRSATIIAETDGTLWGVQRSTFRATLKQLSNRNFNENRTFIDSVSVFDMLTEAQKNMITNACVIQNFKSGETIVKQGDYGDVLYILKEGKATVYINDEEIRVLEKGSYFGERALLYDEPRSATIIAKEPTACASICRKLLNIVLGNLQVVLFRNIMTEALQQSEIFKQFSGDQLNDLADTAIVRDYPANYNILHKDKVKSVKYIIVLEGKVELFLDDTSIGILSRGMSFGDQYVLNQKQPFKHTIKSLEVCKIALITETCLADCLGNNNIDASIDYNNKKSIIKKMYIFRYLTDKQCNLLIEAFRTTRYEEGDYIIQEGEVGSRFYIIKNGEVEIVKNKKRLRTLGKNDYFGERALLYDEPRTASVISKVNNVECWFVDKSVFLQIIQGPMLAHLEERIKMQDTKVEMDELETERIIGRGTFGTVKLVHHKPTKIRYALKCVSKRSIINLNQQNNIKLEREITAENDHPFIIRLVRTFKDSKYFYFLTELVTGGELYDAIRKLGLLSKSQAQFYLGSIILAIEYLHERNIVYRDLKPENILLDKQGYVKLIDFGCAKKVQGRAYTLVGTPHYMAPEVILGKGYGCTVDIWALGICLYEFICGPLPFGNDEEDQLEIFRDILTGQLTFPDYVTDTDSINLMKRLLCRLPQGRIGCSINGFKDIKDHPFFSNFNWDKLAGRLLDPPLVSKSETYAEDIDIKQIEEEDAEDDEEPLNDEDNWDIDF
T2 sequence (P62344 whole entry): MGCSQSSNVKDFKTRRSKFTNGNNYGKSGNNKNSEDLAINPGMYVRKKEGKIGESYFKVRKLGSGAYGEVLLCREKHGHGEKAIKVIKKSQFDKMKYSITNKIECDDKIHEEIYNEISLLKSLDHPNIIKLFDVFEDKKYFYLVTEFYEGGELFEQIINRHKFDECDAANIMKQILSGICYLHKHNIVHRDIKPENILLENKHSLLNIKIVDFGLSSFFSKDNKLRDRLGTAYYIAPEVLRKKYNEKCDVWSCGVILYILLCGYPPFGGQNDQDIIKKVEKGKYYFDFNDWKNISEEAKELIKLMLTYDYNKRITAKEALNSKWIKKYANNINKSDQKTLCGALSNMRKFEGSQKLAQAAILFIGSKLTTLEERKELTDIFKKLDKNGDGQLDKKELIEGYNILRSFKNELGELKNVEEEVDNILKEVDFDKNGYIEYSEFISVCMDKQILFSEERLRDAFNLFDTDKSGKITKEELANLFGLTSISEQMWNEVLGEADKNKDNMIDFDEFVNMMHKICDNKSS

As to `Cc1cccc(Cc2nn(C(C)(C)C)c3ncnc(N)c23)c1` [3MBPP1], the “effect on microneme secretion and invasion of host cells” value in assay [1] was “block in microneme secretion and subsequent invasion of host cells”.

`CCOc1ccc2cc(-c3nn(CC4CCN(C)CC4)c4ncnc(N)c34)ccc2c1` [compound 1294]: the EC50 in assay [2] turned out to be 10.9 µM; in the assay on CDPK1 T145M parasites it was 6.97 µM. The IC50 in assay [3] is 0.262 µM; in assay [4], more than 2 µM; on recombinant PfCDPK1 WT [5], 0.162 µM. The “fold-greater effect in vitro on wild-type enzyme than on methionine mutant” value with recombinant PfCDPK1 WT [6] is listed as 10 fold.

As for `CCOc1ccc2cc(-c3nn(CC4CCN(C)CC4)c4ncnc(N)c34)ccc2n1` [compound 1369], the IC50 in assay [3] was more than 2 µM; in assay [4] it was more than 2 µM; at recombinant PfCDPK1 WT [5] it was 0.438 µM.
